The results in this text go back to patent publication US20080045584A1, “Use of Docetaxel for Treating Hepatocellular Carcinoma” (priority 1999, published 2008).

The viability is a per cent measure of how many cells are alive, often set against a control.

Each structure is given as a SMILES string.

Format in all cases: cell-based, human
In series [1] the test system is Hep G2 cells. Kind of series: Cell viability study: MTT assay. Particulars: for viability: Hep G2, 1 μM. (Formazan colour is commonly taken as a measure of viable cells.)
The subject of another series is Hep 3B cells. Kind of series: Flow cytometric analysis of DNA content (cell cycle, sub-G0/G1). As to the method: (§1) Lysing buffer (0.5% Triton X-100, 0.2 μg/ml Na2EDTA.2H2O, and 1% bovine serum albumin in PBS) was added to the cell pellets which were then left on ice for 15 minutes. 100% methanol pre-cooled to −20° C. was then added to the mixture, which was then centrifuged at 300×g for 5 minutes. The supernatant was discarded and the cell pellet was washed with PBS. The washed pellet was stained with a DNA staining solution (50 μg/ml propidium iodide, and 5 kunitz/ml of RNase A) for 30 minutes at 4° C. in the dark. The DNA content of each cell was measured using a Becton Dickinson FACS Calibur flow cytometer as set out below.
(§2) Cells (10000) were analyzed on a Becton Dickinson FACS Calibur flow cytometer using an argon-ion laser (15 mWatt) with incident beam at 488 nm. For PI exclusion assay, red fluorescence was collected through a 585 nm filter and the cell debris signals were removed by FSC-SSC gating. Data were acquired and analyzed using FACS/CELL Quest software on a Power Macintosh 7600/120 computer. Apoptotic cells and cells at specific cycle phases were determined by ModFit LT software.
(§3) Table 1 gives figures for cell membrane permeability of the hepatoma cells, following treatment with paclitaxel and docetaxel. Table 2 details the percentage of apoptotic (sub-G0/G1) cells found after paclitaxel and docetaxel treatment.
(A flow cytometer gives signals particle by particle.)

Series [2] has as its system Hep G2 cells. The description is as above. To be noted: for apoptotic percentages (sub-G0/G1 cells): 0.001 μM. On the procedure:
as §1, §2, §3

In the next series the test system is HA22T/VGH cells. Described as above. As to the method:
as §1, §2, §3

Turning to `CC(=O)O[C@@]12CO[C@@H]1C[C@H](O)[C@@]1(C)C(=O)[C@H](O)C3=C(C)[C@@H](OC(=O)[C@H](O)[C@@H](NC(=O)OC(C)(C)C)c4ccccc4)C[C@@](O)([C@@H](OC(=O)c4ccccc4)[C@H]21)C3(C)C` [Docetaxel], the viability is recorded as 65.03% in the series on Hep G2 cells [1] (24 hours) and 48.99% with Hep G2 cells [1] (72 hours). Moreover, in the series on Hep G2 cells [1] (Hep G2, 10 μM, maximal reduction observed at 1 μM), the “viability at 10 μM compared with 1 μM” value was “no further decrease in viability”. Besides, the “% of apoptotic (sub-G0/G1) cells” value with Hep 3B cells (24 hrs, 0.01 mM (text: μM)) turned out to be 59.14%; in the series on Hep 3B cells (24 hrs, 0.1 mM (table head; text: μM)) it was 58.67%; in the series on Hep 3B cells (24 hrs, 0.1 mM (table head; text: μM), listed as docetaxel), 58.69%; in the series on Hep 3B cells (24 hrs, 1 mM (text: μM)), 65.74%; with Hep 3B cells (72 hrs, 0.01 mM (text: μM)), 64.12%; with Hep 3B cells (72 hrs, 0.1 mM (text: μM)), 81.66%. In addition, the “% of apoptotic (sub-G0/G1) cells” value is 79.33% with Hep 3B cells (72 hrs, 1 mM (text: μM)); 45.24% in the series on Hep G2 cells [2] (Hep G2, 24 hrs, 0.01 mM (text: μM)); 38.77% in the series with Hep G2 cells [2] (Hep G2, 24 hrs, 0.1 mM (text: μM)); 28.33% in the series with Hep G2 cells [2] (Hep G2, 24 hrs, 1 mM (text: μM)); 42.45% in the series on Hep G2 cells [2] (Hep G2, 72 hrs, 0.01 mM (text: μM)); 42.44% with Hep G2 cells [2] (Hep G2, 72 hrs, 0.1 mM (text: μM)). The “% of apoptotic (sub-G0/G1) cells” value turned out to be 56.66% in the series on Hep G2 cells [2] (Hep G2, 72 hrs, 1 mM (text: μM)); 41.75% in the series on HA22T/VGH cells (24 hrs, 0.01 mM (text: μM)); 18.61% in the series with HA22T/VGH cells (24 hrs, 0.1 mM (text: μM)); 22.94% in the series on HA22T/VGH cells (24 hrs, 1 mM (text: μM)); 56.64% in the series with HA22T/VGH cells (72 hrs, 0.01 mM (text: μM)); 58.61% in the series with HA22T/VGH cells (72 hrs, 0.1 mM (table head; text: μM)). For the same molecule, in the series on HA22T/VGH cells (72 hrs, 1 mM (table head; text: μM)), the “% of apoptotic (sub-G0/G1) cells” value is recorded as 60.98%. Moreover, the “apoptotic percentages (sub-G0/G1 cells)” value in the series on Hep G2 cells [2] (Hep G2, 24 hours) stood at 31.02%; with Hep G2 cells [2] (Hep G2, 72 hours) it was 21.92%.
